These results are taken from US20230114728A1 (Venatorx Pharmaceuticals, Inc., priority 2019, published 2023).

pEC50: −log10 of the molar value.

T1 sequence (P0AD68 1-577): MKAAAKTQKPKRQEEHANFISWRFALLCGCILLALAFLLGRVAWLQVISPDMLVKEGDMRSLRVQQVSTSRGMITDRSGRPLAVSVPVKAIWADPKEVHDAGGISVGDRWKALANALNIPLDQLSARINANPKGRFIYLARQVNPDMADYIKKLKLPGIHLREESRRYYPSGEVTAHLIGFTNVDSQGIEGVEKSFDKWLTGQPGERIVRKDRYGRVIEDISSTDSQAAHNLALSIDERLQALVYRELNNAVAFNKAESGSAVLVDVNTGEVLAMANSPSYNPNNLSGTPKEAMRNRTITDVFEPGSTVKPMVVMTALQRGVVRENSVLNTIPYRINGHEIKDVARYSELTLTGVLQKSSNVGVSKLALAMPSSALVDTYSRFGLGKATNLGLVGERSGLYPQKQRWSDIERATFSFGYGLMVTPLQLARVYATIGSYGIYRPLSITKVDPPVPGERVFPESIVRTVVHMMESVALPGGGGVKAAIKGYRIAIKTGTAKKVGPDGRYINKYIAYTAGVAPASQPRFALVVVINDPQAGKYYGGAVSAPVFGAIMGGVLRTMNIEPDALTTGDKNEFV

This assay addresses T1, E. coli K12 PBP3 (Escherichia coli, UniProt P0AD68).
T1 construct: made in house
The assay can be described thus: biochemical. Type of assay: binding. Put shortly: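 A. baumannii PBP2 (2.5 μM) and PBP3 (0.2 μM) were run in 25 mM Tris pH 8.0 buffer with Tween 20; E. coli PBP3 (1.5 μM) and N. gonorrhoeae PBP2 ([…]) in 50 mM Hepes pH 8.0 buffer.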
By pEC50 is commonly meant −log10 of the EC50, conventionally taken in molar units. Low values mean a high EC50, high ones a low EC50. For `NCCN1CCN(C(=O)N[C@@H](C(=O)N[C@H]2Cc3ccc(F)c(C(=O)O)c3OB2O)c2c(F)cc(O)c(O)c2Cl)C(=O)C1=O` (single isomer, unassigned) [Example 26], the pEC50 is > 4.52.

For `NCCCN1CCN(C(=O)N[C@@H](C(=O)N[C@H]2Cc3ccc(F)c(C(=O)O)c3OB2O)c2c(F)cc(O)c(O)c2Cl)C(=O)C1=O` (single isomer, unassigned) [Example 27], the pEC50 is > 4.52.

For the molecule `NCCCN1CCN(C(=O)N[C@H](C(=O)N[C@H]2Cc3ccc(F)c(C(=O)O)c3OB2O)c2ccc(O)c(O)c2Cl)C(=O)C1=O` (single isomer, unassigned) [Example 28], the pEC50 was 3.30 to 4.52.

With `O=C(O)c1c(F)ccc2c1OB(O)[C@@H](NC(=O)[C@H](NC(=O)N1CCNC1=O)c1c(F)cc(O)c(O)c1Cl)C2` (single isomer, unassigned) [Example 34], the pEC50 is > 4.52.

With `CS(=O)(=O)N1CCN(C(=O)N[C@@H](C(=O)N[C@H]2Cc3ccc(F)c(C(=O)O)c3OB2O)c2c(F)cc(O)c(O)c2Cl)C1=O` (single isomer, unassigned) [Example 35], the pEC50 is > 4.52.

With `NCCN1CCN(C(=O)N[C@@H](C(=O)N[C@H]2Cc3ccc(F)c(C(=O)O)c3OB2O)c2c(F)cc(O)c(O)c2F)C(=O)C1=O` (single isomer, unassigned) [Example 40], the pEC50 is > 4.52.

In the case of `NCCCN1CCN(C(=O)N[C@@H](C(=O)N[C@H]2Cc3ccc(F)c(C(=O)O)c3OB2O)c2c(F)cc(O)c(O)c2F)C(=O)C1=O` (single isomer, unassigned) [Example 41], the pEC50 was > 4.52.

As for `O=C(O)c1ccc(C(NC(=O)c2ccc(O)c(O)c2Cl)C(=O)N[C@H]2Cc3cccc(C(=O)O)c3OB2O)cc1F` (stereo partly drawn) [Example 7, (3R)-3-(2-(4-carboxy-3-fluorophenyl)-2-(2-chloro-3,4-dihydroxybenzamido)acetamido)-2-hydroxy-3,4-dihydro-2H-benzo[e][1,2]oxaborinine-8-carboxylic acid], the pEC50 is 3.30 to 4.52.

On to `O=C(NC(C(=O)N[C@H]1Cc2ccc(F)c(C(=O)O)c2OB1O)c1ncc(O)cc1F)c1ccc(O)c(O)c1Cl` (stereo partly drawn) [Example 8, (3R)-3-(2-(2-chloro-3,4-dihydroxybenzamido)-2-(3-fluoro-5-hydroxypyridin-2-yl)acetamido)-7-fluoro-2-hydroxy-3,4-dihydro-2H-benzo[e][1,2]oxaborinine-8-carboxylic acid], for which the pEC50 is 3.30 to 4.52.

`O=C(Nc1ccc(O)c(O)c1Cl)NC(C(=O)N[C@H]1Cc2ccc(F)c(C(=O)O)c2OB1O)c1ncc(O)cc1F` (stereo partly drawn) [Example 9, (3R)-3-(2-(3-(2-chloro-3,4-dihydroxyphenyl)ureido)-2-(3-fluoro-5-hydroxypyridin-2-yl)acetamido)-7-fluoro-2-hydroxy-3,4-dihydro-2H-benzo[e][1,2]oxaborinine-8-carboxylic acid] gave a pEC50 of 3.30 to 4.52.

On to `O=C(NC(C(=O)N[C@H]1Cc2ccc(F)c(C(=O)O)c2OB1O)c1ncc(O)cc1F)c1c(F)cc(O)c(O)c1Cl` (stereo partly drawn) [Example 10, (3R)-3-(2-(2-chloro-6-fluoro-3,4-dihydroxybenzamido)-2-(3-fluoro-5-hydroxypyridin-2-yl)acetamido)-7-fluoro-2-hydroxy-3,4-dihydro-2H-benzo[e][1,2]oxaborinine-8-carboxylic acid], for which the pEC50 is 3.30 to 4.52.

For `CS(=O)(=O)N1CCN(C(=O)NC(C(=O)N[C@H]2Cc3ccc(F)c(C(=O)O)c3OB2O)c2ccc(O)c(O)c2Cl)C1=O` (stereo partly drawn) [Example 23, (3R)-3-(2-(2-chloro-3,4-dihydroxyphenyl)-2-(3-(methylsulfonyl)-2-oxoimidazolidine-1-carboxamido)acetamido)-7-fluoro-2-hydroxy-3,4-dihydro-2H-benzo[e][1,2]oxaborinine-8-carboxylic acid], the pEC50 was > 4.52.

Turning to `NC(C(=O)N[C@H]1Cc2ccc(F)c(C(=O)O)c2OB1O)c1c(F)cc(O)c(O)c1Cl` (stereo partly drawn) [Example 25, (3R)-3-(2-amino-2-(2-chloro-6-fluoro-3,4-dihydroxyphenyl)acetamido)-7-fluoro-2-hydroxy-3,4-dihydro-2H-benzo[e][1,2]oxaborinine-8-carboxylic acid], the pEC50 was 3.30 to 4.52.

In the case of `CCN1CCN(C(=O)NC(C(=O)N[C@H]2Cc3ccc(F)c(C(=O)O)c3OB2O)c2c(F)cc(O)c(O)c2F)C(=O)C1=O` (stereo partly drawn) [Example 36, (3R)-3-(2-(2,6-difluoro-3,4-dihydroxyphenyl)-2-(4-ethyl-2,3-dioxopiperazine-1-carboxamido)acetamido)-7-fluoro-2-hydroxy-3,4-dihydro-2H-benzo[e][1,2]oxaborinine-8-carboxylic acid], the pEC50 is > 4.52.

For the molecule `O=C(O)c1c(F)ccc2c1OB(O)[C@@H](NC(=O)C(NC(=O)N1CCN(CCF)C(=O)C1=O)c1c(F)cc(O)c(O)c1F)C2` (stereo partly drawn) [Example 37, (3R)-3-(2-(2,6-difluoro-3,4-dihydroxyphenyl)-2-(4-(2-fluoroethyl)-2,3-dioxopiperazine-1-carboxamido)acetamido)-7-fluoro-2-hydroxy-3,4-dihydro-2H-benzo[e][1,2]oxaborinine-8-carboxylic acid], the pEC50 was > 4.52.

As to `O=C(O)c1c(F)ccc2c1OB(O)[C@@H](NC(=O)C(NC(=O)N1CCN(CCBr)C(=O)C1=O)c1c(F)cc(O)c(O)c1F)C2` (stereo partly drawn) [Example 38, (3R)-3-(2-(4-(2-bromoethyl)-2,3-dioxopiperazine-1-carboxamido)-2-(2,6-difluoro-3,4-dihydroxyphenyl)acetamido)-7-fluoro-2-hydroxy-3,4-dihydro-2H-benzo[e][1,2]oxaborinine-8-carboxylic acid], the pEC50 was > 4.52.

`CCN1CCN(C(=O)NC(C(=O)N[C@H]2Cc3ccc(F)c(C(=O)O)c3OB2O)c2cc(F)c(O)c(O)c2Cl)C(=O)C1=O` (stereo partly drawn) [Example 42, (3R)-3-(2-(2-chloro-5-fluoro-3,4-dihydroxyphenyl)-2-(4-ethyl-2,3-dioxopiperazine-1-carboxamido)acetamido)-7-fluoro-2-hydroxy-3,4-dihydro-2H-benzo[e][1,2]oxaborinine-8-carboxylic acid]: the pEC50 is > 4.52.

For the molecule `O=C(O)c1ccc(C(NC(=O)c2c(F)cc(O)c(O)c2Cl)C(=O)N[C@H]2Cc3ccc(F)c(C(=O)O)c3OB2O)cc1F` (stereo partly drawn) [Example 71, (3R)-3-(2-(4-carboxy-3-fluorophenyl)-2-(2-chloro-6-fluoro-3,4-dihydroxybenzamido)acetamido)-7-fluoro-2-hydroxy-3,4-dihydro-2H-benzo[e][1,2]oxaborinine-8-carboxylic acid], the pEC50 is < 3.30.

Turning to `CC(C)(C)[C@@H](NC(=O)N1CCN(CCNC(=O)c2c(F)cc(O)c(O)c2Cl)C(=O)C1=O)C(=O)N[C@H]1Cc2ccc(F)c(C(=O)O)c2OB1O` [Example 80, (R)-3-((R)-2-(4-(2-(2-chloro-6-fluoro-3,4-dihydroxybenzamido)ethyl)-2,3-dioxopiperazine-1-carboxamido)-3,3-dimethylbutanamido)-7-fluoro-2-hydroxy-3,4-dihydro-2H-benzo[e][1,2]oxaborinine-8-carboxylic acid], the pEC50 is > 4.52.
